The results in this text go back to BindingDB's records for doi:10.7270/Q26T0K34 (The Scripps Research Institute Molecular Screening Center, 2010).

The target in the assay is Peroxisome proliferator-activated receptor gamma (Homo sapiens, UniProt P37231). The experiment in a line: PubChem AID 463257.

Each structure is given as a SMILES string.

Sequence of Peroxisome proliferator-activated receptor gamma (P37231 whole entry, looked up): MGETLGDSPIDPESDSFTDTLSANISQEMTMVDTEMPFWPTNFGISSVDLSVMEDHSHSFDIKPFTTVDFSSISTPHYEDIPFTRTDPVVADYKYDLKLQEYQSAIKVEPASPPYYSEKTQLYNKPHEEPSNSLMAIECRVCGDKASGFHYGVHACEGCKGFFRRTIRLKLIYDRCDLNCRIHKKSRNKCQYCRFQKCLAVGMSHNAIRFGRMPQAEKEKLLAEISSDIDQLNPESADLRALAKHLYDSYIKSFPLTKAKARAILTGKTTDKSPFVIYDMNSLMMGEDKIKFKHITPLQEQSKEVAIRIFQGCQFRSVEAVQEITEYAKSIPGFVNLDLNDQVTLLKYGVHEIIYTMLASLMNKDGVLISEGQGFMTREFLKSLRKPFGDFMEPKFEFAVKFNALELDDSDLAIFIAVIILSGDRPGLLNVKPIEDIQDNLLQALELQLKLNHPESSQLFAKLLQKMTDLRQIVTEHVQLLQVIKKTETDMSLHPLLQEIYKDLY

As a reminder, the IC50 is the point on the concentration scale where inhibition reaches its midpoint. A higher IC50 goes with lower potency. `COc1ccc(-n2cc(O)c(-c3nc(-c4ccccc4)cs3)c2N)cc1` [5-amino-1-(4-methoxyphenyl)-4-(4-phenyl-1,3-thiazol-2-yl)-2H-pyrrol-3-one] showed a half-maximal inhibitory concentration (IC50) of 24.7 µM.
